The values that follow come from US20260232767A1, “INTERLEUKIN-23 RECEPTOR ANTAGONIST PEPTIDES FOR USE IN THE TREATMENT OF PSORIASIS” (Janssen Pharmaceutica NV, priority 2023, published 2026).

Holding throughout (type): in vivo, human
One assay concerns BD-2. Put plainly: Serum BD-2 immunoassay. Particulars: all treatment groups vs placebo; as early as Week 4. The procedure: (§1) To evaluate psoriasis relevant systemic biomarkers (Beta-defensin 2 (BD-2), IL-17A, IL-17F, and IL-22), protein concentrations were measured in serum using validated immunoassays. The IL-17A (Catalog #03-0159-00) and IL-17F (Catalog #03-0164-00) assays used are commercially available SMC™-based high sensitivity immunoassays produced by the EMD Millipore Corporation. The manufacturer's protocols were followed and analyzed on the Erenna® instrument platform except for the use of 11 μL Elution Buffer B. While the IL-22 assay is also based on the SMC™ platform and run on the Erenna instrument, the assay was developed internally as a coated plate-based assay. The development and optimization of the BD-2 assay was done on the Meso Scale Discovery on the electrochemiluminescence-based platform, a division of Meso Scale Diagnostics LLC (MSD). For all assays, concentration adjustments were made to values measuring below empirically defined LLOQ or empirically defined ULOQ values. Assay QC verified performance of generated standard curves (average concentration recovery & CV of technical replicates) and control samples (inter-assay plate agreement (CV)).
(§2) Serum levels of psoriasis disease biomarkers BD-2, IL-22, IL-17A, and IL-17F relative to baseline were analyzed in patients who received placebo or the compound of Formula (I) and compared to clinical response. […]

For another assay, the system named is IL-17F. Put plainly: Serum IL-17F immunoassay. Particulars: all treatment groups relative to placebo. The procedure:
as §1, §2

For a further assay, the system named is scalp psoriasis. In words: Scalp Specific IGA (ss-IGA), Example 1. The conditions noted are these: Week 16. The method, then: The Scalp Specific Investigator Global Assessment (ss-IGA) instrument is used to evaluate the disease severity of scalp psoriasis. The lesions are assessed in terms of the clinical signs of redness, thickness, and scaliness which are scored as: absence of disease (0), very mild disease (1), mild disease (2), moderate disease (3), and severe disease (4).
Clinician-reported outcomes including Psoriasis Area and Severity Index (PASI), Body Surface Area (BSA), Investigator's Global Assessment (IGA), Nail Psoriasis Area and Severity Index (NAPSI), Fingernail Physician's Global Assessment (f-PGA), Static Physician's Global Assessment of Genitalia (s-PGA-G), Physician's Global Assessment of Hands and/or Feet (hf-PGA), and Scalp Specific Investigator Global Assessment (ss-IGA) were obtained at Week 0, 8, and 16. PASI and IGA were also obtained at Weeks 1, 2, 4, and 12, and at Week 20, four weeks after the administration of the tablets has stopped.
Proportion of Patients Achieving scalp-specific (ss)-IGA score 0/1 and ss-IGA score 0 and With at Least a 2-Grade Improvement from baseline at Week 16.

Turning to `CC(=O)NCCCC[C@@H]1NC(=O)[C@H](Cc2c[nH]c3c(C)cccc23)NC(=O)[C@H]([C@@H](C)O)NC(=O)[C@H](CC(N)=O)NC(=O)[C@@H](NC(C)=O)C(C)(C)SSC(C)(C)[C@@H](C(=O)N[C@@H](Cc2ccc(OCCN)cc2)C(=O)N[C@@H](Cc2ccc3ccccc3c2)C(=O)NC2(C(=O)N[C@@H](CCC(=O)O)C(=O)N[C@@H](CC(N)=O)C(=O)N[C@@H](Cc3cccnc3)C(=O)N(C)CC(N)=O)CCOCC2)NC1=O` [IL-23 receptor antagonist peptide, Ac-[Pen]*-N-T-[W(7-Me)]-[Lys(Ac)]-[Pen]*-Phe[4-(2-aminoethoxy)]-[2-Nal]-[THP]-E-N-[3-Pal]-Sarc-NH2 (*[Pen]-[Pen]* formdisulfidebond)], in the assay on BD-2, the BD-2 serum levels entry is listed as “Statistically significant reduction”. Also, the IL-17F serum levels result with IL-17F is “Statistically significant reductions”. Besides, the “ss-IGA score 0/1 and ≥2-grade improvement from baseline, %” value in the assay with scalp psoriasis (25 mg BID, baseline ss-IGA score ≥2, n=32) is on record as “(65.6) %”; with scalp psoriasis (25 mg QD, baseline ss-IGA score ≥2, n=37), “(32.4) %”; in the assay with scalp psoriasis (50 mg QD, baseline ss-IGA score ≥2, n=40), 70.0%; in the assay with scalp psoriasis (100 mg BID, baseline ss-IGA score ≥2, n=36) it was 75.0%; with scalp psoriasis (100 mg QD, baseline ss-IGA score ≥2, n=40), 67.5%. For the same molecule, the “Response rate ss-IGA score 0/1 with ≥2-grade improvement from baseline” value in the assay with scalp psoriasis (all doses vs placebo) is given as “significantly higher than placebo”.
